Assay results as given in publication PMC9516332 (Frontiers in Oncology, 2022).
Read-outs that look alike come from different tables or passages of the source.

Assays:
Test in all cases: Kinase panel profiling at 1 µmol/L (MSA or IMAP), percentage inhibition
Format in all cases: biochemical
[1] = target: T1, panel of 255 wild-type kinases (Homo sapiens, UniProt Q8TD19); conditions: read-out: %-inhibition, NEK9
T1 sequence (Q8TD19 1-979): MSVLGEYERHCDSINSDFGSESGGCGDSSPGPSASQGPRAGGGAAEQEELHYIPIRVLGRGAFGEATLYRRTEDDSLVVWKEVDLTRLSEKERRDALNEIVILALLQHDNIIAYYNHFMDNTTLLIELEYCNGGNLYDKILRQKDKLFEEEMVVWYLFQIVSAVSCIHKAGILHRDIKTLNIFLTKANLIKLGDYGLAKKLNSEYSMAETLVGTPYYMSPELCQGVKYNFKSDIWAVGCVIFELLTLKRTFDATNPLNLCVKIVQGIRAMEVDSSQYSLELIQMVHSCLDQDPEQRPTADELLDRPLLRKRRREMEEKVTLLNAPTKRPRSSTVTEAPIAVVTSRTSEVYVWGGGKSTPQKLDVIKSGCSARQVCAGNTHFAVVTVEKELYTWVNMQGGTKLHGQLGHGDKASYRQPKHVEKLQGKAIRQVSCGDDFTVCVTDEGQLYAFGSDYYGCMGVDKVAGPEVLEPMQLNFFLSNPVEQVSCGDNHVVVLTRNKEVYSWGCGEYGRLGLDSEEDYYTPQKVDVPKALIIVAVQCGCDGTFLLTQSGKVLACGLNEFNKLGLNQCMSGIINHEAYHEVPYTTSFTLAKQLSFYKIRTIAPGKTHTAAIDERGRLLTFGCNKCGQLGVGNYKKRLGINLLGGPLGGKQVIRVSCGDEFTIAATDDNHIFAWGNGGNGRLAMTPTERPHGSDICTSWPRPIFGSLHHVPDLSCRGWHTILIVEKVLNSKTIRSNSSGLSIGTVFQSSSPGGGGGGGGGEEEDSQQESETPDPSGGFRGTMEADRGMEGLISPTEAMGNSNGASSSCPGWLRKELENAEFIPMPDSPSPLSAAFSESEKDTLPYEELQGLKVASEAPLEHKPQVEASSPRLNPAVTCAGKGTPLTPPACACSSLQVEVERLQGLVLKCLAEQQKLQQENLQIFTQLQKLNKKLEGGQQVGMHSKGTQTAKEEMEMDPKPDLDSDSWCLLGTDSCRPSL

[2] = target: T2, panel of 255 wild-type kinases (Homo sapiens, UniProt Q9BZL6); conditions: read-out: %-inhibition at 1 µmol/L, PKD2
T2 sequence (Q9BZL6 1-878): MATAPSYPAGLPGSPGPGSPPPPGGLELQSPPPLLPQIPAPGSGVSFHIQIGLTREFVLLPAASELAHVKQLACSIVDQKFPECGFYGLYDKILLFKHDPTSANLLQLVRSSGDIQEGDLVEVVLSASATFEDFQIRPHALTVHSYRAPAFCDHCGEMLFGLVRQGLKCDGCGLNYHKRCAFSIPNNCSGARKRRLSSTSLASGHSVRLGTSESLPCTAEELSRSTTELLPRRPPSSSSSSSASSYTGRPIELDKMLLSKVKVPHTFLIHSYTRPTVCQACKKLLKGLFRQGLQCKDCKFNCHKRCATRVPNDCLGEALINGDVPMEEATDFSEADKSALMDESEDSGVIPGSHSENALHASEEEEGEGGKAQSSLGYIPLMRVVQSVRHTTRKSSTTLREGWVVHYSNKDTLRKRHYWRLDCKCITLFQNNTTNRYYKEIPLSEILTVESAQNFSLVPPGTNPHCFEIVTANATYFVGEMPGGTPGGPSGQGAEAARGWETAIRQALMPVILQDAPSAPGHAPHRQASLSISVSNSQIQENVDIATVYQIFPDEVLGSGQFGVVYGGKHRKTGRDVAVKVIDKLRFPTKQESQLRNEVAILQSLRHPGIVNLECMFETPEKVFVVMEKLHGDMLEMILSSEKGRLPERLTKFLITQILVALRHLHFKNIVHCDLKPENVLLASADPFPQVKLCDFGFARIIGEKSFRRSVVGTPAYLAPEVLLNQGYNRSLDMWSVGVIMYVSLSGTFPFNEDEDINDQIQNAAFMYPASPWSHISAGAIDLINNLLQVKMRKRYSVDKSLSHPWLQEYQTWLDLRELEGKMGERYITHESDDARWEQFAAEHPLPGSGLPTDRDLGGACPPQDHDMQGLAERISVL

[3] = target: panel of 255 wild-type kinases (Homo sapiens, UniProt P17948); conditions: read-out: %-inhibition at 1 µmol/L, FLT1
[4] = target: panel of 255 wild-type kinases (Homo sapiens, UniProt Q13555); conditions: read-out: %-inhibition CaMK2γ
[5] = NEK9, 1 µmol/L single concentration
[6] = kinase PKD2, 1 µmol/L single concentration
[7] = kinase FLT1, 1 µmol/L single concentration
[8] = CaMK2γ kinase assay, 1 µmol/L single concentration

| Structure (SMILES) | inhibition at 1 µM [1, 5] [%] | inhibition at 1 µM [2, 6] [%] | inhibition at 1 µM [3, 7] [%] | inhibition at 1 µM [4, 8] [%] | inhibition at 1 µM [1] [%] | inhibition at 1 µM [2] [%] | inhibition at 1 µM [3] [%] | inhibition at 1 µM [4] [%] |
| --- | --- | --- | --- | --- | --- | --- | --- | --- |
| CO[C@]1(C(=O)N[C@@H](C)c2ccc(-n3cc(F)cn3)nc2)CC[C@H](c2nc(C)cc(Nc3cc(C)[nH]n3)n2)CC1 [pralsetinib] | 16 | -9 | 96 | -3 |  |  |  |  |
| COc1cc2ncnc(Nc3ccc(F)c(Cl)c3)c2cc1NC(=O)/C=C/CN1CCCCC1 [dacomitinib] | -1.05 | 10 | 20 | 2.37 |  |  |  |  |
| CCn1c(=O)c(-c2cc(NC(=O)Nc3ccccc3)c(F)cc2Br)cc2cnc(NC)cc21 [ripretinib] | -2.78 | 13 | 91 | 0.397 |  |  |  |  |
| Cc1nc(NC(=O)N2CCC[C@H]2C(N)=O)sc1-c1ccnc(C(C)(C)C(F)(F)F)c1 [alpelisib] | 2.8 | -20 | 3 | 0.455 |  |  |  |  |
| C=CC(=O)N1CCC([C@@H]2CCNc3c(C(N)=O)c(-c4ccc(Oc5ccccc5)cc4)nn32)CC1 [zanubrutinib] | -2 | 2.31 | 2.22 | 1.6 |  |  |  |  |
| O=C(Nc1cnn2ccc(N3CCC[C@@H]3c3cc(F)ccc3F)nc12)N1CC[C@H](O)C1 [larotrectinib] | -4.43 | -6 | -0.638 | -0.126 |  |  |  |  |
| Cc1cc(Nc2ncnc3ccc(NC4=NC(C)(C)CO4)cc23)ccc1Oc1ccn2ncnc2c1 [tucatinib] | -2 | 44 | 3.22 | -5 |  |  |  |  |
| FC(F)(F)c1ccc(CNc2ccc(Cc3c[nH]c4ncc(Cl)cc34)cn2)cn1 [pexidartinib] | 1.33 | -5 | 82 | 0.769 |  |  |  |  |
| Cn1cnc2c(F)c(Nc3ccc(Br)cc3F)c(C(=O)NOCCO)cc21 [binimetinib] | -6.59 | -7 | 10 | -3.65 |  |  |  |  |
| CN1CCN(c2ccc(C(=O)Nc3n[nH]c4ccc(Cc5cc(F)cc(F)c5)cc34)c(NC3CCOCC3)c2)CC1 [entrectinib] | 17 | -24 | 76 | 17 |  |  |  |  |
| COC(=O)N[C@@H](C)CNc1nccc(-c2cn(C(C)C)nc2-c2cc(Cl)cc(NS(C)(=O)=O)c2F)n1 [encorafenib] | -4.26 | 2.49 | 17 | -3.25 |  |  |  |  |
| C[C@H]1Oc2cc(cnc2N)-c2c(nn(C)c2C#N)CN(C)C(=O)c2ccc(F)cc21 [lorlatinib] | 6 | -11 | 3.17 | 10 |  |  |  |  |
| CCN1CCN(c2ccc(Nc3cc(N(C)C(=O)Nc4c(Cl)c(OC)cc(OC)c4Cl)ncn3)cc2)CC1 [infigratinib] | 10 | -4.21 | 91 | -3.37 |  |  |  |  |
| COc1ccc(CN2C3CC2CN(c2ccc(-c4cc(OCC(C)(C)O)cn5ncc(C#N)c45)cn2)C3)cn1 [selpercatinib] | -0.802 | 1.11 | 98 | 0.226 |  |  |  |  |
| Cn1cnc2c(F)c(Nc3ccc(Br)cc3Cl)c(C(=O)NOCCO)cc21 [selumetinib] | 0.727 | -15 | 4.22 | -3 |  |  |  |  |
| CCc1nc(C(N)=O)c(Nc2ccc(N3CCC(N4CCN(C)CC4)CC3)c(OC)c2)nc1NC1CCOCC1 [gilteritinib] | 21 | 56 | 95 | 62 |  |  |  |  |
| CCN1C(=O)N(c2c(F)c(OC)cc(OC)c2F)Cc2cnc3[nH]c(CN4CCOCC4)cc3c21 [pemigatinib] | -1.57 | 4.44 | 95 | 5 |  |  |  |  |
| Cn1cc(-c2cc3c(N4CCN(c5ncc([C@@](C)(N)c6ccc(F)cc6)cn5)CC4)ncnn3c2)cn1 [avapritinib] | 30 | -0.865 | 76 | -4 |  |  |  |  |
| CNC(=O)c1ccc(-c2cnc3ncc(Cc4ccc5ncccc5c4)n3n2)cc1F [capmatinib] |  |  |  |  | -1.11 | -7.47 | 5.7 | -1.68 |
| C[C@H](Nc1ncnc2nc[nH]c12)c1cc2cccc(Cl)c2c(=O)n1-c1ccccc1 [duvelisib] | 1.7 | -12 | 7.43 | 0.463 |  |  |  |  |
